Reference: patent publication US20240334932A1, “POLYMORPHS HAVING PESTICIDAL ACTIVITY” (CORTEVA AGRISCIENCE LLC, priority 2021, published 2024)

Experiments:
[1] = Dissolution in hexane (anti-solvent); type: physicochemical
[2] = Air milling of polymorphs, PXRD before and after (Example 12); type: physicochemical; conditions: Jet Mill to d(0.5)<6 μm and d(0.9)<15 μm
Experimental: Compound 1, Polymorph A and Compound 1, Polymorph B samples were air milled separately with Jet Mill until particle size of d (0.5)<6 μm and d (0.9)<15 μm. Powder X-Ray Diffraction (PXRD) was conducted on the samples before and after the air milling process.

[3] = tested on: adult sweet potato whitefly, B. tabaci; test: Knock-down study, treated glass vial bioassay, hexane anti-solvent experiment (Example 13B); type: in vivo; conditions: for Effect on B. tabaci behavior compared with the amorphous oil: hexane; for Trt Least Squares Means (proportion scale) Mean: proportion of insects above the 2 cm line: hexane anti-solvent suspension, repeated measures 15-180 min, GLMM
Experimental: In this study, the effect of Compound 1 on the behavior of adult sweet potato whitefly, B. tabaci was evaluated. In general, different forms of Compound 1 (either inventive Polymorph form A, inventive Polymorph form B, or non-crystalline Compound 1, amorphous oil) were applied to the inside of glass vials and adult B. tabaci were transferred into treated vials, exposing them to Compound 1 via contact with the treated glass surface. To quantify the knock-down effect reported previously (Lee et. al. 2013), a line was scribed 2 cm above the bottom of the treated vials and the number of B. tabaci above the 2 cm line were recorded the first three hours following initial exposure. […] This study characterized the effect of Compound 1, Polymorph A and Compound 1, Polymorph B on adult B. tabaci whitefly behavior using a common treated glass vial bioassay to expose the test insects through direct contact (Busvine 1971), and compared those effects in direct head-to-head comparison with non-cystalline Compound 1. Test compounds were either dissolved in acetone (Example 11A) or suspended in a volatile anti-solvent (hexane) (Example 11B), and then evenly coated on the inside of a glass vial using a laboratory-roller. In this experiment, three forms of Compound 1 (Polymorph form A, Polymorph form B, and non-crystalline, amorphous oil) were evaluated for their effect on B. tabaci behavior, polymorph A, polymorph B and an amorphous oil. The samples of Polymorph form A and Polymorph form B were finely milled as described in Example 12. The experimental design of the hexane experiment, including rates (25, 2.5, and 0.25 g/ha), replication (three replications per treatment), and preparation of the treatment suspension was similar to the process described for Example 13A. However, hexane was used instead of acetone. […] Following sonication, samples were again mixed using a vortex mixer immediately before transferring 151 μl of each stock suspension to 11.85 mL of hexane to create the treatment suspension for the 25 g/ha rate (resulting in 0.25 μg/cm^2). The 25 g/ha treatment suspension was serially diluted ten-fold, two times to generate treatment suspensions for the 2.5 and 0.25 g/ha rates. 3 mL of each treatment suspension was transferred into the 11-dram vials and the vials were placed on a laboratory tube roller and rotated at room temperature until the hexane had fully evaporated, leaving an even coating of Compound 1 particles on the inside of the vials. The solvent blank vials were treated with 3 mL of hexane. Following treatment, the vials were stored, infested with approximately 117.4, 47-219 (Mean, min-max) adult B. tabaci, and evaluated as described in the acetone experiment. For each trial and rate, the proportion of insects above the 2 cm line was analyzed with a generalized linear mixed model (GLMM) for repeated measures with binomial response and logit link function (Stroup, 2012). The use of the generalized linear model with binomial distribution for the response, instead of the linear model with normal distribution (ANOVA), allows the correct use of the distributional assumptions and actual sample size (number of insects) used in the experiments. The model included Treatment, Time point, and the interaction Treatment x Time point as fixed effects and the replicate (experimental unit) as random effect. The correlation between repeated measures was modeled with the compound symmetry covariance matrix. The generalized linear mixed models were estimated with the residual pseudo-likelihood method, and the means of the treatment proportions were compared with Tukey's tests (α=0.05) (Stroup 2012). Statistical analyses were performed with SAS Proc GLIMMIX (SAS Software, Version 9.4, SAS Institute Inc., Cary, NC).

[4] = tested on: adult sweet potato whitefly, B. tabaci; test: Knock-down study, treated glass vial bioassay, acetone experiment (Example 13A); type: in vivo, B. tabaci (Middle East Asia Minor1 (MEAM1) biotype); conditions: for Effect on B. tabaci behavior compared with the amorphous oil: acetone; for Trt Least Squares Means (proportion scale) Mean: proportion of insects above the 2 cm line: applied from acetone, repeated measures 15-180 min, GLMM
Experimental: In this study, the effect of Compound 1 on the behavior of adult sweet potato whitefly, B. tabaci was evaluated. In general, different forms of Compound 1 (either inventive Polymorph form A, inventive Polymorph form B, or non-crystalline Compound 1, amorphous oil) were applied to the inside of glass vials and adult B. tabaci were transferred into treated vials, exposing them to Compound 1 via contact with the treated glass surface. To quantify the knock-down effect reported previously (Lee et. al. 2013), a line was scribed 2 cm above the bottom of the treated vials and the number of B. tabaci above the 2 cm line were recorded the first three hours following initial exposure.
This study characterized the effect of Compound 1, Polymorph A and Compound 1, Polymorph B on adult B. tabaci whitefly behavior using a common treated glass vial bioassay to expose the test insects through direct contact (Busvine 1971), and compared those effects in direct head-to-head comparison with non-cystalline Compound 1. Test compounds were either dissolved in acetone (Example 11A) or suspended in a volatile anti-solvent (hexane) (Example 11B), and then evenly coated on the inside of a glass vial using a laboratory-roller.
In this experiment, two forms of Compound 1 (polymorph form B and an amorphous oil) were evaluated for their effect on B. tabaci behavior. Three application rates were evaluated for each form of Compound 1 (25 g/ha, 2.5 g/ha,and 0.25 g/ha), in addition to a solvent blank control. Each treatment and the control were replicated three times. Compound 1 samples were dissolved in acetone and were coated on the inside of a 11-dram screw-top glass vial (Fisherbrand 03-339-21N) (Fisher Scientific, Hampton, NH). […] To treat the vials, a stock solution of each sample was first prepared by dissolving 1 mg of Compound 1 sample (either polymorph form B or an amorphous oil) in 2 ml of acetone. The stock solution was agitated using a laboratory vortex mixer to ensure complete mixture of the solution. 151 μL of each stock solution was added to 11.85 mL of acetone to create the treatment solution for the 25 g/ha rate (resulting in 0.25 μg/cm^2). The 25 g/ha treatment solution was serially diluted ten-fold, two times to generate treatment solutions for the 2.5 and 0.25 g/ha rates. 3 mL of each treatment solution was transferred into the 11-dram vials and the vials were placed on a laboratory tube roller and rotated at room temperature until the acetone had fully evaporated, leaving a coating of Compound 1 on the inside of the vials. The solvent blank vials were treated with 3 mL of acetone. After treatment, the vials were left open in a fume hood overnight at room temperature in preparation for testing the following day. Mixed-sex adult B. tabaci whiteflies (Middle East Asia Minor1 (MEAM1) biotype) were collected from a susceptible colony maintained at Corteva Agriscience (Indianapolis, IN). The adult B. tabaci were anesthetized with CO2 and approximately 66.5, 32-102 (Mean, min-max) were introduced into each of the treated vials and their behavior recorded. To evaluate B. tabaci behavior, a line was scribed 2 cm above the bottom of the vial and the number of individuals above the line were recorded at 15, 30, 45, 60, 90, 120, 150, and 180 min after introduction. Following completion of the experiment, the insects were devitalized by freezing at −30° C. for 72 h after which the total number of insects in each vial was recorded. The percentage of B. tabaci above the 2 cm line was calculated for each rate and was used to graph the effect of Compound 1 on whiteflies over time.
For each trial and rate, the proportion of insects above the 2 cm line was analyzed with a generalized linear mixed model (GLMM) for repeated measures with binomial response and logit link function (Stroup, 2012). […]

Structure (SMILES)	Solubility in hexane [1]	Polymorphic form after the air milling process (PXRD) [2]	Effect on B. tabaci behavior compared with the amorphous oil ([3]; 0.25 g/ha)	Trt Least Squares Means (proportion scale) Mean: proportion of insects above the 2 cm line ([3]; 0.25 g/ha)	Effect on B. tabaci behavior compared with the amorphous oil ([3]; 2.5 g/ha)	Trt Least Squares Means (proportion scale) Mean: proportion of insects above the 2 cm line ([3]; 2.5 g/ha)	Effect on B. tabaci behavior compared with the amorphous oil ([3]; 25 g/ha)	Trt Least Squares Means (proportion scale) Mean: proportion of insects above the 2 cm line ([3]; 25 g/ha)	Effect on B. tabaci behavior compared with the amorphous oil ([4]; 0.25 g/ha)	Trt Least Squares Means (proportion scale) Mean: proportion of insects above the 2 cm line ([4]; 0.25 g/ha)	Effect on B. tabaci behavior compared with the amorphous oil ([4]; 2.5 g/ha)	Trt Least Squares Means (proportion scale) Mean: proportion of insects above the 2 cm line ([4]; 2.5 g/ha)	Effect on B. tabaci behavior compared with the amorphous oil ([4]; 25 g/ha)	Trt Least Squares Means (proportion scale) Mean: proportion of insects above the 2 cm line ([4]; 25 g/ha)
CCN(C(=O)CCS(C)(=O)=O)c1sc(-c2cccnc2)nc1Cl [Compound 1, N-[4-chloro-2-(pyridin-3-yl)-1,3-thiazol-5-yl]-N-ethyl-3-(methylsulfonyl) propanamide]	does not readily dissolve	–	–	–	–	–	–	–	–	–	–	–	–	–
CCN(C(=O)CCS(C)(=O)=O)c1sc(-c2cccnc2)nc1Cl [Polymorph A, N-[4-chloro-2-(pyridin-3-yl)-1,3-thiazol-5-yl]-N-ethyl-3-(methylsulfonyl) propanamide]	–	unchanged	more negatively affected than those exposed to the amorphous oil	0.342	significantly affected when compared directly to the amorphous oil	0.080	not a difference in the effect	0.015	–	–	–	–	–	–
CCN(C(=O)CCS(C)(=O)=O)c1sc(-c2cccnc2)nc1Cl [Polymorph B, N-[4-chloro-2-(pyridin-3-yl)-1,3-thiazol-5-yl]-N-ethyl-3-(methylsulfonyl) propanamide]	–	unchanged	more negatively affected than those exposed to the amorphous oil	0.345	significantly affected when compared directly to the amorphous oil	0.079	not a difference in the effect	0.013	not a difference in the effect	0.502	more affected than insects exposed to the amorphous oil	0.156	no difference in the effect	0.115
CCN(C(=O)CCS(C)(=O)=O)c1sc(-c2cccnc2)nc1Cl [amorphous oil, N-[4-chloro-2-(pyridin-3-yl)-1,3-thiazol-5-yl]-N-ethyl-3-(methylsulfonyl) propanamide, reference compound]	–	–	–	0.601	–	0.453	–	0.029	–	0.295	–	0.326	–	0.167
